The test system of assay [1] is mCherry reporter in Jurkat T cells. Put plainly: Loss of function TIMs mutants in GZV-synZiFTR2.0. Type of assay: cell-based. The note with it: GZV induction, 3 days, compared to GZV-synZiFTR2.0 carrying WT TIMs. From the text:
FIG. 4A-4B. IWS1 TIMs mechanism of action. (FIG. 4A) IWS1 mutants affecting TIMs employed in this study. WT TIMs domain in GZV-synZiFTR2.0 were replaced by TIMs structural mutant variants (see e.g., SEQ ID NOs: 5-14). The amino acid sequence of the TIMs domain is shown (see e.g., SEQ ID NO: 5). The boxes highlight each of the 3 TIM amino acid sequences (see e.g., SEQ ID NOs: 6-8) and the mutants respectively (see e.g., SEQ ID NOs: 12-14). Different TIM mutations caused loss of interactions with various transcription elongation factors (Transcription factor IIS (TFIIS) and Elongin A (EloA) for the TIM1 mutant; Protein Phosphatase 1 Nuclear Targeting Subunit (PP1-PNUTs) for the TIM2 mutant; lens epithelium-derived growth factor (LEDGF) and H3K36me2/3 binding protein HDGFL2 (HRP2) for the TIM3 mutant). Figure discloses SEQ ID NOS 5-6, 12, 6, 6-7, 7, 13, 7-8, 8, 8, and 14, respectively, in order of appearance. (FIG. 4B) Evaluating loss of function TIMs mutations. GZV-synZiFTR2.04 distinct mutant variants of TIMs were expressed in Jurkat T cells. The circuit outputs were compared to GZV-synZiFTR2.0 carrying WT TIMs. Jurkat T cells were co-transduced with reporter, synZiFTR2.0 and synZiFTR expression lentiviral vectors in an equal ratio. mCherry fluorescence was measured by flow cytometry 3 days after induction by small molecules at the indicated concentrations. Bars represent mean values for three measurements±SD. Statistics represent two-tailed Student's t test; ****P<0.0001.
The TIMs domain contains a series of three unique TIMs that selectively interact with different TND-containing factors. TIM1 interacts with Transcription Factor IIS (TFIIS) and Elongin A (EloA), TIM2 is recognized by the PP1-PNUTS phosphatase, and finally the H3K36me3 readers, lens epithelium-derived growth factor (LEDGF), and H3K36me2/3 binding protein HDGFL2 (HRP2) bind to TIM3. Here, it was investigated which direct interactions between each TIMs and their protein partner is involved in the enhanced transcriptional output by synZiFTR2.0s. […]

For the next assay, the system named is iCasp9+ cells. The following applies: cited from earlier work.
For assay [2] the following is noted: among 2A peptides; cited from earlier work.
Assay [3] relates to mCherry fluorescent reporter in Jurkat T cells. Put plainly: hhTAD transcription activators, mCherry reporter in Jurkat T cells. Type of assay: cell-based. The following applies: 1 uM GZV or 4-OHT, 72h, compared with p65 and VPR counterparts. The text has this:
FIG. 6A is a schematic and bar graph showing that the IWS1 TIMs domain increases transcriptional activation in an NS3-comprising synTF in the presence of grazoprevir. FIG. 6B is a schematic and bar graph showing that the IWS1 TIMs domain increases transcriptional activation in an ERT2-comprising synTF in the presence of 4OHT.
The humanized hybrid transcription activator domain (see e.g., SEQ ID NOs: 15-16) when integrated into small-molecule inducible transcriptional activation systems is able to robustly and strongly induce transgene expression in mammalian cells. The humanized hybrid transcription activation domain (hhTAD) was attached to an artificial zinc finger proteins (see e.g., U.S. Pat. No. 10,138,493 B2 and US Patent Publication No. 2020/0377564 A1; the contents of each of which are incorporated herein by reference in their entirety) to either a NS3 or ERT2 domain (see e.g., FIG. 5A). To report transcriptional activation, described herein is a […] mCherry fluorescent reporter (see e.g., FIG. 5B). […]
To evaluate the strength of this hhTAD, Jurkat T cells were generated stably expressing both the transcription activator(s) modified with the hhTAD and fluorescent reporter. […] Reporter cells with were treated 1 uM GZV or 4-OHT, and mCherry reporter fluorescence was measured at 72h (see e.g., FIG. 6A-6B).

“Also recorded” adds a separate entry of the source.

Consider six molecules from patent publication US12709637B2, “Regulated synthetic gene activation systems” (TRUSTEES OF BOSTON UNIVERSITY, priority 2023, dated 2026).

“M2: TIM2 mutant, I476A and F477A, SEQ ID NO: 10, in GZV-synZiFTR2.0 (SDKKNEEKDLFGSDSESGNEEENLIADAAGESGDEEEEEFTGFN)”: the mCherry fluorescence output result in assay [1] is given as “ablated the mCherry fluorescence output by TIMs-p65 fusion”.

As to “M1: TIM1 mutant, L458A and F459A, SEQ ID NO: 9, in GZV-synZiFTR2.0 (SDKKNEEKDAAGSDSESGNEEENLIADIFGESGDEEEEEFTGFN)”, in assay [1], the mCherry fluorescence output result is reported as “did not affect GZV-synZiFTR2.0 output”.

For the molecule `CC[C@H](C(=O)N1CCCC[C@H]1C(=O)O[C@H](CCc1ccc(OC)c(OC)c1)c1cccc(OCC(=O)NCCNC(=O)COc2cccc([C@@H](CCc3ccc(OC)c(OC)c3)OC(=O)[C@@H]3CCCCN3C(=O)[C@@H](CC)c3cc(OC)c(OC)c(OC)c3)c2)c1)c1cc(OC)c(OC)c(OC)c1` [AP1903], the “GvHD outcome after AP1903” value with iCasp9+ cells (patients receiving iCasp9 T cells) is given as “complete reversal of GvHD; also recorded: Two of the four patients”. Also, the “reduction in iCasp9+ cells” value with iCasp9+ cells (phase I trial, four patients with acute GvHD, within 30 minutes of administration) is on record as 90%.

For “P2A: 2A self-cleaving peptide derived from porcine teschovirus-1 2A, SEQ ID NO: 341 (GSGATNFSLLKQAGDVEENPGP; VARIANT 1..3 May be absent)”, in assay [2], the efficiency of self-cleaving entry was “most efficient”.

Consider “M3: TIM3 mutant, F488A and F491A, SEQ ID NO: 11, in GZV-synZiFTR2.0 (SDKKNEEKDLFGSDSESGNEEENLIADIFGESGDEEEEEATGAN)”, for which the mCherry fluorescence output entry in assay [1] is “did not affect GZV-synZiFTR2.0 output”.

“IWS1 TIMs domain: amino acids 449-492 of IWS1, SEQ ID NO: 5, 44 aa; transcriptional effector domain”: in assay [3], the mCherry reporter fluorescence result is reported as “increases their transcriptional activation”.
